Data as given in PubChem BioAssay (NCI).
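Method: 48-hour compound exposure of cells in 96-well plates, five concentrations, linear interpolation of endpoints. At the GI50, growth is halved. TGI: concentration producing complete growth inhibition.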

Tests used:
Assay in all cases: NCI-60 cell line screen, 48 h; in the data active = GI50 below about 0.43 µM; inactive = the rest
[1] = tested on: 786-0 renal
[2] = tested on: ACHN renal
[3] = tested on: BT-549 breast
[4] = tested on: CAKI-1 renal
[5] = tested on: COLO 205 colon
[6] = tested on: DU-145 prostate
[7] = tested on: EKVX NSCLC
[8] = tested on: HCC-2998 colon
[9] = tested on: HCT-116 colon
[10] = tested on: HCT-15 colon
[11] = tested on: HOP-62 NSCLC
[12] = tested on: HOP-92 NSCLC
[13] = tested on: HS 578T breast
[14] = tested on: HT29 colon
[15] = tested on: K-562 leukemia
[16] = tested on: KM12 colon
[17] = tested on: LOX IMVI melanoma
[18] = tested on: M14 melanoma
[19] = tested on: MALME-3M melanoma
[20] = tested on: MCF7 breast
[21] = tested on: MDA-MB-231 breast
[22] = tested on: MDA-MB-435
[23] = tested on: NCI-H226 lung
[24] = tested on: NCI-H23 lung
[25] = tested on: NCI-H460 lung
[26] = tested on: NCI-H522 lung
[27] = tested on: NCI/ADR-RES ovarian
[28] = tested on: OVCAR-5 ovarian
[29] = tested on: OVCAR-8 ovarian
[30] = tested on: PC-3 prostate
[31] = tested on: SF-268 CNS
[32] = tested on: SF-295 CNS
[33] = tested on: SF-539 CNS
[34] = tested on: SK-MEL-2 melanoma
[35] = tested on: SK-MEL-28 melanoma
[36] = tested on: SK-MEL-5 melanoma
[37] = tested on: SK-OV-3 ovarian
[38] = tested on: SNB-19 CNS
[39] = tested on: SNB-75 CNS
[40] = tested on: SW-620 colon
[41] = tested on: T-47D breast
[42] = tested on: U251 CNS
[43] = tested on: UACC-257 melanoma
[44] = tested on: UACC-62 melanoma
[45] = tested on: UO-31 renal
[46] = tested on: A549 NSCLC
[47] = tested on: HL-60(TB) leukemia
[48] = tested on: IGROV1 ovarian
[49] = tested on: MOLT-4 leukemia
[50] = tested on: OVCAR-4 ovarian
[51] = tested on: RPMI-8226 leukemia
[52] = tested on: RXF 393 renal
[53] = tested on: SN12C renal
[54] = tested on: SR leukemia
[55] = tested on: TK-10 renal
[56] = tested on: A498 renal
[57] = tested on: CCRF-CEM leukemia
[58] = tested on: OVCAR-3 ovarian

COC(=O)NC/C=C\c1nc(CC/C=C\C(=O)OC2CC3CC(=O)O[C@@H](/C=C/CC(C)C)C[C@@H]4CCC(C)C(C[C@@H](OC)CC(C2)O3)O4)co1 (some centres not stated)
39.9 µM: TGI [1]
12.2 µM: TGI [15]
70.6 µM: TGI [4]
93.4 µM: TGI [19]
50.1 µM: TGI [22]
2.38 µM: TGI [12]
25.6 µM: TGI [44]
94.1 µM: TGI [34]
84 µM: TGI [31]
74.7 µM: TGI [45]
87.7 µM: TGI [26]
72.4 µM: TGI [42]
38.3 µM: TGI [33]
73.8 µM: TGI [32]
> 100 µM: TGI [2] | TGI [3] | TGI [6] | TGI [7] | TGI [13] | TGI [14] | TGI [16] | TGI [18] | TGI [20] | TGI [23] | TGI [24] | TGI [25] | TGI [27] | TGI [28] | TGI [29] | TGI [30] | TGI [35] | TGI [37] | TGI [38] | TGI [39] | TGI [40] | TGI [41] | TGI [43]
active: GI50 [1] < 0.01 µM | GI50 [2] < 0.01 µM | GI50 [4] < 0.01 µM | GI50 [5] < 0.01 µM | GI50 [7] < 0.01 µM | GI50 [8] < 0.01 µM | GI50 [9] < 0.01 µM | GI50 [10] < 0.01 µM | GI50 [11] < 0.01 µM | GI50 [12] < 0.01 µM | GI50 [15] < 0.01 µM | GI50 [17] 0.091 µM | GI50 [20] < 0.01 µM | GI50 [22] < 0.01 µM | GI50 [24] < 0.01 µM | GI50 [25] < 0.01 µM | GI50 [26] < 0.01 µM | GI50 [28] < 0.01 µM | GI50 [30] < 0.01 µM | GI50 [31] < 0.01 µM | GI50 [32] < 0.01 µM | GI50 [33] < 0.01 µM | GI50 [36] < 0.01 µM | GI50 [40] < 0.01 µM | GI50 [42] < 0.01 µM | GI50 [44] 0.412 µM
79 µM: TGI [11]
19 µM: TGI [8] | TGI [36]
98.4 µM: TGI [5]
61.9 µM: TGI [17]
inactive: GI50 [3] 9.93 µM | GI50 [6] 4.59 µM | GI50 [13] 32.8 µM | GI50 [14] 7.63 µM | GI50 [16] 2.67 µM | GI50 [18] 7.36 µM | GI50 [19] 25.5 µM | GI50 [21] 4.43 µM | GI50 [23] 24.4 µM | GI50 [27] 38.3 µM | GI50 [29] 53 µM | GI50 [34] 12.8 µM | GI50 [35] 26.5 µM | GI50 [37] > 100 µM | GI50 [38] 34.4 µM | GI50 [39] > 100 µM | GI50 [41] 45.7 µM | GI50 [43] > 100 µM | GI50 [45] 2.46 µM
20.7 µM: TGI [10]
47.6 µM: TGI [21]
57.5 µM: TGI [9]

COC(=O)/C=C\S/C(=C(/c1ccccc1)n1ccc(C(=O)OC)n1)c1ccccc1
39.4 µM: TGI [31]
> 100 µM: TGI [46] | TGI [3] | TGI [4] | TGI [5] | TGI [7] | TGI [8] | TGI [9] | TGI [10] | TGI [47] | TGI [14] | TGI [48] | TGI [15] | TGI [16] | TGI [17] | TGI [18] | TGI [22] | TGI [49] | TGI [23] | TGI [24] | TGI [25] | TGI [27] | TGI [50] | TGI [28] | TGI [29] | TGI [51] | TGI [32] | TGI [33] | TGI [35] | TGI [36] | TGI [53] | TGI [54] | TGI [40] | TGI [41] | TGI [55] | TGI [43]
50.8 µM: TGI [37]
39.8 µM: TGI [52]
86.2 µM: TGI [12]
36.6 µM: TGI [1]
50.4 µM: TGI [11]
42.2 µM: TGI [38]
43.9 µM: TGI [19]
38.7 µM: TGI [45]
59.5 µM: TGI [34]
48 µM: TGI [13] | TGI [26]
49.7 µM: TGI [30]
28.7 µM: TGI [20]
10.3 µM: TGI [44]
70.9 µM: TGI [21]
20.1 µM: TGI [2]
38.2 µM: TGI [42]
24 µM: TGI [39]

C=C1CC(COc2cc(Cl)nc(N)n2)C1
74.1 µM: TGI [2]
96.8 µM: TGI [56]
71.5 µM: TGI [12]
60.8 µM: TGI [5] | TGI [51]
89.3 µM: TGI [4]
inactive: GI50 [1] 49.5 µM | GI50 [56] 28.4 µM | GI50 [46] 33.9 µM | GI50 [2] 14.5 µM | GI50 [3] 20.6 µM | GI50 [4] 22.8 µM | GI50 [57] 69.6 µM | GI50 [5] 21.1 µM | GI50 [6] 47.7 µM | GI50 [7] 25.6 µM | GI50 [9] 35.1 µM | GI50 [10] 33 µM | GI50 [47] 35.1 µM | GI50 [12] 23.1 µM | GI50 [13] 49.9 µM | GI50 [14] 37 µM | GI50 [48] 84.1 µM | GI50 [15] 40 µM | GI50 [16] 25.5 µM | GI50 [19] 93.3 µM | GI50 [20] 39.4 µM | GI50 [21] 30.1 µM | GI50 [49] 40.2 µM | GI50 [23] 42.5 µM | GI50 [24] 38.6 µM | GI50 [25] 55.6 µM | GI50 [26] 27.6 µM | GI50 [27] 33.4 µM | GI50 [58] 28.6 µM | GI50 [50] 67.8 µM | GI50 [28] 66.9 µM | GI50 [29] 43.7 µM | GI50 [51] 21.7 µM | GI50 [52] 36.8 µM | GI50 [31] 70.4 µM | GI50 [32] 34.4 µM | GI50 [34] 31.4 µM | GI50 [36] 44.4 µM | GI50 [37] 69.7 µM | GI50 [53] 44.1 µM | GI50 [38] 37.2 µM | GI50 [39] 29.2 µM | GI50 [54] 34.8 µM | GI50 [40] 45.7 µM | GI50 [41] 23.3 µM | GI50 [42] 13.5 µM | GI50 [45] 35.6 µM
